Data taken from patent US9499582B2, “Compositions and methods for increasing carnitine level in muscle tissue” (Oneday—Biotech And Pharma Ltd., priority 2012, dated 2016).

Columns and labels:
[1] = tested on: carnitine level in skeletal muscle tissue; assay: Carnitine levels in mouse tissues after i.p. peptide administration (commercial carnitine kit); format: in vivo, Male ICR mice
Protocol: (§1) Male ICR mice were injected i.p. with 250 mg/kg of the DY-65 peptide for 5 consecutive days. Half an hour after the last injection lung, heart, skeletal muscle (femural), brain, liver, kidney and blood were removed, homogenized (100 mg tissue in 200 μl distilled water), centrifuged and filtrated through 30K Microcon® filter. Carnitine analysis was carried out by a commercial kit (BIOVISION™, catalogue number K642-100). n=4 for each group.

[2] = tested on: carnitine level in other tissues, including liver and kidneys; assay: Carnitine levels in other mouse tissues (lung, heart, brain, liver, kidney, blood) after i.p. peptide administration; format: in vivo; conditions: male ICR mice, 250 mg/kg i.p. for 5 consecutive days, tissues removed half an hour after last injection
Protocol: as §1

[3] = Toxicity observation in mice treated with the peptide; format: in vivo; conditions: male ICR mice, 250 mg/kg i.p. for 5 consecutive days

Row | Substance | elevation in the level of carnitine in skeletal muscle tissue ([1]; healthy male ICR mice, 250 mg/kg i.p. for 5 consecutive days, femural skeletal muscle removed half an hour after last injection, p<0.05, n=4) | elevation in carnitine level in other tissues, including liver and kidneys [2] | toxicity effects [3] | increased carnitine levels compared to baseline levels in any of the tissues examined ([1]; experiment of Example 1 repeated, all tissues examined (lung, heart, skeletal muscle, brain, liver, kidney, blood))
1 | N-acetyl-Cys-Lys-Met-Cys-NH2 (Ac-CKMC-NH2; cysteine pairing not given here) [DY-65] | about 150% | did not demonstrate a significant elevation in carnitine level | no toxicity effects were observed | –
2 | N-acetyl-Cys-Met-Lys-Cys-NH2 (Ac-CMKC-NH2; cysteine pairing not given here) [DY-70, reference compound] | – | – | – | did not result in increased carnitine levels
